Experiment [1] addresses T1, Serine/threonine-protein kinase 4 (Homo sapiens) (UniProt Q13043).
T1 sequence (whole entry): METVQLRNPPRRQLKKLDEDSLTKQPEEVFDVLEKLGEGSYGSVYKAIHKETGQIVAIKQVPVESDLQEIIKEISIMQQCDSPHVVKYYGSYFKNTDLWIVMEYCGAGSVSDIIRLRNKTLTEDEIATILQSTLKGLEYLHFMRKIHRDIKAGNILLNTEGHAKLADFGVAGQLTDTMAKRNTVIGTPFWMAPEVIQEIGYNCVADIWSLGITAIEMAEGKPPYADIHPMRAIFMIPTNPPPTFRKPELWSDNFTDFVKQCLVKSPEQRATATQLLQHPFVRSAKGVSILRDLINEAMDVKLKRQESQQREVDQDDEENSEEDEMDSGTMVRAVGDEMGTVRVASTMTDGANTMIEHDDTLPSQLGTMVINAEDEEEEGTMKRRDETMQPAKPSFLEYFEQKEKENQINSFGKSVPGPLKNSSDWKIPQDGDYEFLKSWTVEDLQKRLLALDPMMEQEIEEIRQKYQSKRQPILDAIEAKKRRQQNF

Experiment [2] addresses Serine/threonine-protein kinase PAK 4 (Homo sapiens) (UniProt O96013).
Experiment [3] addresses Death-associated protein kinase 3 (Homo sapiens) (UniProt O43293).
The target in experiment [4] is Serine/threonine-protein kinase pim-1 (Homo sapiens) (UniProt P11309).
The target in experiment [5] is T2, Dual specificity mitogen-activated protein kinase kinase 6 (Homo sapiens) (UniProt P52564).
T2 sequence (whole entry): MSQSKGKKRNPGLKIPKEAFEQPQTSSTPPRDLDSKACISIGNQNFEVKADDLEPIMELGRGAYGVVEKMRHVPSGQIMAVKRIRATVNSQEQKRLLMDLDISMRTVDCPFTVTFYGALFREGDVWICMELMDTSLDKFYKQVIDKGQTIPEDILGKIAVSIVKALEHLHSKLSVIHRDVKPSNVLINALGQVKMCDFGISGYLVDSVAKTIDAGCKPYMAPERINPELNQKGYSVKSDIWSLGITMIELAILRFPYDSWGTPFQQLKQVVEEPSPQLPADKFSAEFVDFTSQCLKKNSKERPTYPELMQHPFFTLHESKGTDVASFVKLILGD

Experiment [6] deals with Mitogen-activated protein kinase 11 (Homo sapiens, UniProt Q15759).
For experiment [7], the target named is T3, Serine/threonine-protein kinase Nek2 (Homo sapiens) (UniProt P51955).
T3 sequence (whole entry): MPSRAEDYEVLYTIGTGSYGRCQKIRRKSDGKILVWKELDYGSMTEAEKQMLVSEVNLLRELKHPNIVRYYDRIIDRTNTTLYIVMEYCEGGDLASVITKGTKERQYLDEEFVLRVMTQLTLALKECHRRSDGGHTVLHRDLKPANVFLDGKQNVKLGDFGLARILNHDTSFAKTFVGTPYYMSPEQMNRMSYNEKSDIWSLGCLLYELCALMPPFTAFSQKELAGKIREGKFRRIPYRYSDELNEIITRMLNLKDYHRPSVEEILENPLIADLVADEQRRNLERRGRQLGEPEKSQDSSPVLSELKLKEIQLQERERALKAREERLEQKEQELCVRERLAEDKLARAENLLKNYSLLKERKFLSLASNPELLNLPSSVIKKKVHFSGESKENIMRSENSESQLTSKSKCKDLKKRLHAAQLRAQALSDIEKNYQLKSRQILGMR

The target of experiment [8] is T4, Myotonin-protein kinase (Homo sapiens) (UniProt Q09013).
T4 sequence (whole entry): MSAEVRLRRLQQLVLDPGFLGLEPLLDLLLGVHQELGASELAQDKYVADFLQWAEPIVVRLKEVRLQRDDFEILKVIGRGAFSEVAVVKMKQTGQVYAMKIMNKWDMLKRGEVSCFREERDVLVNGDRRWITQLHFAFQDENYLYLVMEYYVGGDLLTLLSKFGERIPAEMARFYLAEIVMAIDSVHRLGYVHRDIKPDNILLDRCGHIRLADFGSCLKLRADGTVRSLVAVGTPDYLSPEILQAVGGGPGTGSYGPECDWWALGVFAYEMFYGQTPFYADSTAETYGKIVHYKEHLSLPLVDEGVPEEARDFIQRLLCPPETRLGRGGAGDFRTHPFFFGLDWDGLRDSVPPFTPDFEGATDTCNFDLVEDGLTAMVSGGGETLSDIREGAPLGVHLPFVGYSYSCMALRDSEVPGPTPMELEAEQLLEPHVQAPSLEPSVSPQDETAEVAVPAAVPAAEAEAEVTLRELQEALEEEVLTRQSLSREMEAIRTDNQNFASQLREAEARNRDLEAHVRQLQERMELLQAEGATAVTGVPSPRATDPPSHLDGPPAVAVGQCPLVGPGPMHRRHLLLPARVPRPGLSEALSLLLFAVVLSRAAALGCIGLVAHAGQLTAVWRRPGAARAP

Experiment [9] addresses Cyclin-dependent kinase 2 (Homo sapiens, UniProt P24941).
Experiment [10] concerns the target Ribosomal protein S6 kinase alpha-3 (Homo sapiens) (UniProt P51812).
The target in experiment [11] is Casein kinase I isoform gamma-1 (Homo sapiens) (UniProt Q9HCP0).

Usually ΔTm stands for the shift of the melting midpoint relative to a reference.

Sequence of Serine/threonine-protein kinase PAK 4 (Homo sapiens) (O96013 whole entry, looked up): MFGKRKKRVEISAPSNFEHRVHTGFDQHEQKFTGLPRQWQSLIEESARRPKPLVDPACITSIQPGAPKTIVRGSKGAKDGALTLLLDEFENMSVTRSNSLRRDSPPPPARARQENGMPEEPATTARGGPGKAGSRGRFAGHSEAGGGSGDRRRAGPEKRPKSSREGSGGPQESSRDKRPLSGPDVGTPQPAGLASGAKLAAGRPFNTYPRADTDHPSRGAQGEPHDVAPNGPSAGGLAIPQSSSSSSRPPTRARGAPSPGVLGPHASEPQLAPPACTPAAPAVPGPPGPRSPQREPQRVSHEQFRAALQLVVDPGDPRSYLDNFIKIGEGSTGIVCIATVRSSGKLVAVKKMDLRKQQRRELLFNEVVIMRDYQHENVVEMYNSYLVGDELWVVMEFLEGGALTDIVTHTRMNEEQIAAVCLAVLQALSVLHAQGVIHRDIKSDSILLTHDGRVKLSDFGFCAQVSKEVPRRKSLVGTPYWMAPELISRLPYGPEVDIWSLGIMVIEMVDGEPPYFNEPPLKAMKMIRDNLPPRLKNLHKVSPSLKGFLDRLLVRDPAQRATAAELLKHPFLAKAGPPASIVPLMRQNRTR
Sequence of Serine/threonine-protein kinase pim-1 (Homo sapiens) (P11309 whole entry, looked up): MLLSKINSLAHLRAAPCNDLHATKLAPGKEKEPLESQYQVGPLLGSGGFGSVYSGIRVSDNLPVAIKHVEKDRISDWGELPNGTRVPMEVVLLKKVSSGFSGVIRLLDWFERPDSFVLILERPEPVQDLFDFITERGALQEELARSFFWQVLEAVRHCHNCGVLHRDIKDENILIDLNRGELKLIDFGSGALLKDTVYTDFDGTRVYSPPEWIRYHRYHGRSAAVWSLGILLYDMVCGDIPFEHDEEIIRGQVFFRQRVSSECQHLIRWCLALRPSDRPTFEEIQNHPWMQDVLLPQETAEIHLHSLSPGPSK
Sequence of Ribosomal protein S6 kinase alpha-3 (Homo sapiens) (P51812 whole entry, canonical isoform): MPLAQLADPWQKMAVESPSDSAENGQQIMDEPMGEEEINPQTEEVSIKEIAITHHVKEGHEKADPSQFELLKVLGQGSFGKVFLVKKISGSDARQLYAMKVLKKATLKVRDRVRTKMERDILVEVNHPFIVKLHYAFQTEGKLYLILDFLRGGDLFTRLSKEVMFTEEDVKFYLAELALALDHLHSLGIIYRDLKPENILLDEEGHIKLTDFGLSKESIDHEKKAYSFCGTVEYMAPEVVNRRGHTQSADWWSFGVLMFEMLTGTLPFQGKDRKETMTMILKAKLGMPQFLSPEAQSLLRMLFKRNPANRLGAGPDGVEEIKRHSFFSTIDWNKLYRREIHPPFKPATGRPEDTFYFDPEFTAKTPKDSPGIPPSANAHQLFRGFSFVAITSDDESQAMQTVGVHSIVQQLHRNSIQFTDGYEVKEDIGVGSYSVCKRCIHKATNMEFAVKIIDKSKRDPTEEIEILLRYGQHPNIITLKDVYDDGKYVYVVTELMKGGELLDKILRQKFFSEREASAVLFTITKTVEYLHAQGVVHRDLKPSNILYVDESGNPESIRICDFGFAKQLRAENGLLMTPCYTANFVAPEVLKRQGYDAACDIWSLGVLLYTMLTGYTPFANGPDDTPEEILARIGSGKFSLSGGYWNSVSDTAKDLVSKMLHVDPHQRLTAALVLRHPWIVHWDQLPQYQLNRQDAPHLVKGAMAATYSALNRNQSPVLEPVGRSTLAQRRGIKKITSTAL
Sequence of Death-associated protein kinase 3 (Homo sapiens) (O43293 whole entry, looked up): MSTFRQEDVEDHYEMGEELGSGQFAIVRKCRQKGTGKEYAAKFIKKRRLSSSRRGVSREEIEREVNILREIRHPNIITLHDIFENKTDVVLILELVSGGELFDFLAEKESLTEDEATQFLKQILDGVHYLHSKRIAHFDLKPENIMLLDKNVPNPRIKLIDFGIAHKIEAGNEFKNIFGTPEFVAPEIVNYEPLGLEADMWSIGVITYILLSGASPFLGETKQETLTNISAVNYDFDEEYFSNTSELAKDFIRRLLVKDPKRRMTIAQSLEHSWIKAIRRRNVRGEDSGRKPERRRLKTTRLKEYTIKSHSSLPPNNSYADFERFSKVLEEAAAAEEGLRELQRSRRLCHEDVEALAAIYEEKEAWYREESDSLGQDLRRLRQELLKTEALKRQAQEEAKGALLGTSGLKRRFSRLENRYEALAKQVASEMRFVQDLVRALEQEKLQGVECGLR
Sequence of Mitogen-activated protein kinase 11 (Q15759 whole entry): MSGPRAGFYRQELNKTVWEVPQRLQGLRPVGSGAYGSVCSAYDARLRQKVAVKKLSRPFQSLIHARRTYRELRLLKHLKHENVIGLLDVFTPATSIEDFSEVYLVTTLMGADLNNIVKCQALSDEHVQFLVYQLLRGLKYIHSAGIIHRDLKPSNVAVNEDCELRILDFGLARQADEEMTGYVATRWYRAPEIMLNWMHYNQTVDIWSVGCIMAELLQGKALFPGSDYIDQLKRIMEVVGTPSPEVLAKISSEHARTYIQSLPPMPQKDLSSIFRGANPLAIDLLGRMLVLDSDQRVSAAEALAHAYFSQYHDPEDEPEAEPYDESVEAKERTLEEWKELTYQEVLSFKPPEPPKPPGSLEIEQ
Sequence of Casein kinase I isoform gamma-1 (Homo sapiens) (Q9HCP0 whole entry, looked up, canonical isoform): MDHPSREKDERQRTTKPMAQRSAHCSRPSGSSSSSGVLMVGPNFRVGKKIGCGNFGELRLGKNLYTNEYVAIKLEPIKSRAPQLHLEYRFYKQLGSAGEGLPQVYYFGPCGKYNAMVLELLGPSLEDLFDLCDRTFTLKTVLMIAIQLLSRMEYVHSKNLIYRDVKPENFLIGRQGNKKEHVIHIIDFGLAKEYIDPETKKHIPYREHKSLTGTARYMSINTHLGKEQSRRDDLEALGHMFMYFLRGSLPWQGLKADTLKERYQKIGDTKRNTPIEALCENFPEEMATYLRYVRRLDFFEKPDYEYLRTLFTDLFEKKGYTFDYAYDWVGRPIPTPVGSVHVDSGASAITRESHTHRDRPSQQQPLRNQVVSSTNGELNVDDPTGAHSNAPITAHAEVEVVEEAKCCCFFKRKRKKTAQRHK

Regarding `O=C1Nc2cc(Br)ccc2/C1=C1/Nc2ccccc2/C1=N\O`, the shift in melting temperature (ΔTm) in [1] is 4.4 °C; in [2], 1.8 °C; in experiment [3], 3.1 °C; in experiment [4] it was 0.1 °C; in [5] it was 0.2 °C; in [6], -2.5 °C. Moreover, the ΔTm in experiment [7] came out at 0.7 °C; in [8], 0.3 °C; in experiment [9], 4.1 °C; in experiment [10], 4.6 °C; in experiment [11], 3.5 °C.

For `O=c1c(-c2ccc(O)cc2)coc2cc(O)cc(O)c12`, the ΔTm was 1.5 °C in [1]; 0.8 °C in experiment [2]; 0.5 °C in experiment [3]; 3.3 °C in [4]; 0.9 °C in experiment [5]; 0 °C in experiment [6]. Besides, the thermal shift (ΔTm) in experiment [7] was -0.1 °C; in experiment [8], 2.4 °C; in experiment [9], 0.7 °C; in experiment [10], 1.5 °C; in experiment [11], 0.8 °C.

As to `O=S(=O)(NCCNC/C=C/c1ccc(Br)cc1)c1cccc2cnccc12`, the shift in melting temperature (ΔTm) in [1] is -0.2 °C; in experiment [2], 1 °C; in [3], 3.8 °C; in [4], -0.2 °C; in experiment [5], 0 °C; in experiment [6], 0.4 °C. Further, the thermal shift (ΔTm) in [7] was -0.2 °C; in [8], -0.6 °C; in experiment [9] it was -0.5 °C; in experiment [10] it was 0.6 °C; in experiment [11], 0.6 °C.

On to `Ic1cccc(CSc2nnc(-c3ccncc3)o2)c1`, for which the thermal shift (ΔTm) in [1] is -0.4 °C; in experiment [2], -0.1 °C; in experiment [3], 0.2 °C; in [4], -1.5 °C; in experiment [5], 0.3 °C; in [6], -0.4 °C. Besides, the shift in melting temperature (ΔTm) is -0.2 °C in [7]; -0.1 °C in [8]; -0.3 °C in experiment [9]; 0 °C in [10]; 0.6 °C in experiment [11].

As to `CC(C)(C)c1cc(C=C2C(=O)C=CC2=O)cc(C(C)(C)C)c1O`, the ΔTm in [1] is 1.2 °C; in experiment [2] it was 1.5 °C; in [3], -0.4 °C; in experiment [4], -1.1 °C; in experiment [5], -2.5 °C; in [6], -1.5 °C. In addition, the ΔTm is 1.1 °C in experiment [7]; 1.4 °C in [8]; 1.2 °C in experiment [9]; -5 °C in [10]; 0.9 °C in experiment [11].

Turning to `Nc1n[nH]c2nnc(-c3c(-c4ccccc4)nn4ccccc34)cc12`, the ΔTm in [1] was 0.4 °C; in experiment [2] it was -0.1 °C; in experiment [3] it was 3.9 °C; in [4], 1.1 °C; in experiment [5], 0.2 °C; in [6] it was 4.5 °C. The ΔTm in experiment [7] is -0.2 °C; in experiment [8] it was 2.3 °C; in [9], 0.1 °C; in [10], 1.7 °C; in experiment [11] it was 0.9 °C.

Turning to `O=C1NC(=O)C(c2c[nH]c3ccccc23)=C1c1c[nH]c2ccccc12`, the thermal shift (ΔTm) is 4.1 °C in experiment [1]; 1.8 °C in experiment [2]; -0.2 °C in [3]; 5.9 °C in experiment [4]; 1.1 °C in experiment [5]; 0.5 °C in experiment [6]. For the same molecule, the ΔTm in [7] came out at 1.9 °C; in [8] it was 3.8 °C; in [9], 1.5 °C; in experiment [10] it was 1 °C; in [11] it was 0.6 °C.

Consider `NC1=NC(=O)/C(=C2\CCNC(=O)c3[nH]c(Br)cc32)N1` [HYMENIALDISINE], for which the shift in melting temperature (ΔTm) in [1] is 5.2 °C; in experiment [2] it was 1.6 °C; in [3], 7.6 °C; in experiment [4] it was 0.7 °C; in experiment [5], 0.6 °C; in experiment [6] it was 0.1 °C. The ΔTm worked out at 0.8 °C in experiment [7]; 2.1 °C in [8]; 1.5 °C in experiment [9]; 6.3 °C in experiment [10]; 5.7 °C in experiment [11].

As for `CN(C)c1ccc(CC2C(=O)Nc3ccccc32)cc1` (stereo not drawn), the ΔTm in experiment [1] is 4.4 °C; in experiment [2], 0.9 °C; in experiment [3], -0.8 °C; in experiment [4], -0.2 °C; in experiment [5] it was 0.5 °C; in [6], 0.3 °C. The shift in melting temperature (ΔTm) is -0.5 °C in experiment [7]; -1.8 °C in experiment [8]; 1 °C in experiment [9]; 0.9 °C in experiment [10]; 1.2 °C in experiment [11].

In the case of `CN(C)CC1CCn2c(c(C3=C(c4c[nH]c5ccccc45)C(=O)NC3=O)c3ccccc32)C1` (stereo not drawn), the thermal shift (ΔTm) is 4.9 °C in [1]; 1.5 °C in experiment [2]; 0.5 °C in experiment [3]; 4.9 °C in experiment [4]; 0.8 °C in [5]; -0.3 °C in experiment [6]. Also, the ΔTm in [7] turned out to be 1 °C; in experiment [8], 6.4 °C; in [9], 2.5 °C; in experiment [10], 0.8 °C; in experiment [11], 0.5 °C.

For `O=Nc1c(-c2c(O)[nH]c3ccccc23)[nH]c2ccccc12`, the ΔTm in experiment [1] is 7.8 °C; in [2], 1.7 °C; in experiment [3], 1.2 °C; in experiment [4], 2 °C; in [5], 3.6 °C; in experiment [6], 0.7 °C. In addition, the thermal shift (ΔTm) in experiment [7] is 2.5 °C; in [8], -0.3 °C; in experiment [9] it was 6.6 °C; in experiment [10], 0 °C; in experiment [11] it was -0.3 °C.

Regarding `O=c1sn(Cc2ccccc2)c(=S)n1Cc1ccccc1`, the ΔTm in [1] is 0.9 °C; in experiment [2] it was 1.2 °C; in experiment [3], -0.2 °C; in [4], -0.2 °C; in experiment [5], 0.1 °C; in experiment [6] it was -0.3 °C. Further, the shift in melting temperature (ΔTm) is 1.5 °C in experiment [7]; 0.5 °C in experiment [8]; 0.3 °C in experiment [9]; -0.4 °C in experiment [10]; 0.5 °C in experiment [11].

Consider `NC(=O)c1ccc(-c2nc(-c3ccc4c(c3)OCCO4)c(-c3ccccn3)[nH]2)cc1`, for which the ΔTm in experiment [1] was 1.1 °C; in experiment [2], 0.9 °C; in [3], -0.3 °C; in experiment [4], -0.5 °C; in [5] it was 0.3 °C; in [6], -0.1 °C. The ΔTm in [7] was 1.1 °C; in [8], 0.8 °C; in experiment [9] it was 0.6 °C; in experiment [10], 0 °C; in [11], 0.4 °C.

For the origin of these results see ChEMBL document CHEMBL1145498, “A systematic interaction map of validated kinase inhibitors with Ser/Thr kinases” (Proc Natl Acad Sci U S A, 2007).
